The target of test [1] is T1, cyclin D1/cdk 4 enzyme (Homo sapiens, UniProt P11802).
T1 construct: made in house; host or cells: Sf9 insect cells, recombinant baculovirus
The experiment in a line: CDK4 ELISA kinase assay (phospho-Rb ser 795 detection). It is filed as biochemical. The conditions noted are these: In Vitro Enzyme Assay, cyclin D1/cdk 4, read-out: CDK4 IC50. In a few lines: (§1)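 Inhibition was derived from A450 relative to control wells lacking compound, following an anti-phospho-Rb Ser795 sandwich of HRP detection. The reactions combined coated GST-Rb fragment, 200 μM ATP and baculovirus-expressed cyclin/CDK enzymes, incubated for 1 h at 30° C.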

For test [2], the target named is T2, cyclin E/CDK2 enzyme (Homo sapiens, UniProt P24941).
T2 construct: made in house; host or cells: Sf9 insect cells, recombinant baculovirus
Description: CDK2 ELISA kinase assay (phospho-Rb ser 795 detection). It is filed as biochemical. The conditions noted are these: In Vitro Enzyme Assay, cyclin E/CDK2, read-out: CDK2 IC50. In a few lines:
as §1
(An ELISA detects its analyte on a solid surface through an enzyme-linked reagent.)

In test [3] the target is T3, cyclin B/CDK1 enzyme (Homo sapiens, UniProt P06493).
T3 construct: purchased New England BioLabs; host or cells: Sf9 insect cells, recombinant baculovirus
Description: CDK1 ELISA kinase assay (phospho-Rb ser 795 detection). It is filed as biochemical. As to conditions: In Vitro Enzyme Assay, cyclin B/CDK1, read-out: CDK1 IC50. In a few lines:
as §1

The test system of test [4] is BT474. Description: Cytotoxicity assay (SRB), BT474. It is filed as cell-based. The conditions noted are these: Homo sapiens, BT-474, 144 h, BT474 cells, 6 days, SRB; read-out: In Vitro Cellular Activity IC50 BT474. In outline:
(§2)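 BT474 (12000 cells/well) was treated for 6 days, whereas HCT-116 (4000), LoVo (6000) and MCF-7 (6000) were treated for 3 days, all in RPMI 1640 containing 5% FBS. Surviving-cell percentage came from SRB dye binding measured at 540 nm.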

In test [5] the test system is HCT-116. The experiment in a line: Cytotoxicity assay (SRB), HCT-116. As to conditions: Homo sapiens, HCT-116, 72 h, HCT116 cells, 3 days, SRB; read-out: In Vitro Cellular Activity IC50 HCT116. It is filed as cell-based. In a few lines: as §2
The subject of test [6] is LoVo. The experiment in a line: Cytotoxicity assay (SRB), LoVo. It is filed as cell-based. As to conditions: Homo sapiens, LoVo, 72 h, LoVo cells, 3 days, SRB; read-out: In Vitro Cellular Activity IC50 LOVO. In a few lines: as §2
For test [7], the system named is MCF-7. The experiment in a line: Cytotoxicity assay (SRB), MCF-7. The class given is cell-based. The conditions noted are these: Homo sapiens, MCF7, 72 h, MCF-7 cells, 3 days, SRB; read-out: In Vitro Cellular Activity IC50 MCF-7. In outline:
as §2

Results on 16 compounds are retold here after US7713994B2 (Wyeth LLC, priority 2005, dated 2010).

T3 sequence (P06493 whole entry): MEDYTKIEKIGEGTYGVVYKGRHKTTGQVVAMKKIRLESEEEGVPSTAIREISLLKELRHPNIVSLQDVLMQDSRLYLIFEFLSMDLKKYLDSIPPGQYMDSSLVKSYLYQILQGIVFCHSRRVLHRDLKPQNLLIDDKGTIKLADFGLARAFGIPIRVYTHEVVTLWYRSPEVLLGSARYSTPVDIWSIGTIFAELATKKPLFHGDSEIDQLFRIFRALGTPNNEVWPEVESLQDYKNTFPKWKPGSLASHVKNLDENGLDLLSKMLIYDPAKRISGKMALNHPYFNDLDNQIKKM
T3 sequence (P14635 whole entry partner): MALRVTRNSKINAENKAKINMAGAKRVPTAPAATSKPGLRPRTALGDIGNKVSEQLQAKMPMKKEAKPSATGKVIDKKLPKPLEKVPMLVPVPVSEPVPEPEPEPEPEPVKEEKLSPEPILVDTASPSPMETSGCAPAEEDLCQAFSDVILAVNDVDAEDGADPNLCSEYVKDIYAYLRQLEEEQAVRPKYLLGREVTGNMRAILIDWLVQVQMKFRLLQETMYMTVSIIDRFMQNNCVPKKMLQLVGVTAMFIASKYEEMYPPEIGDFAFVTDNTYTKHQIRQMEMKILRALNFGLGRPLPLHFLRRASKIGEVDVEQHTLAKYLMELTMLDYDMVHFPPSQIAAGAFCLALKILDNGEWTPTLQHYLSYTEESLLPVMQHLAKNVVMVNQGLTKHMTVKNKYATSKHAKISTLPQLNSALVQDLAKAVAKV
T1 sequence (P11802 whole entry, species assumed): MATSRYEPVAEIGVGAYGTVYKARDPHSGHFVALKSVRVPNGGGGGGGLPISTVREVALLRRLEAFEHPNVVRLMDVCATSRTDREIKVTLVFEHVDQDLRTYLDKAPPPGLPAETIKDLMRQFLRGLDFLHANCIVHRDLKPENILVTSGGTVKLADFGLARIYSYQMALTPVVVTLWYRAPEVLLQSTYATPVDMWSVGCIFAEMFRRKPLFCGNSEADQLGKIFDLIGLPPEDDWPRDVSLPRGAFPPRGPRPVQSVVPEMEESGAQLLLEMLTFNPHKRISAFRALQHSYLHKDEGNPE
T1 sequence (P24385 whole entry partner, species assumed): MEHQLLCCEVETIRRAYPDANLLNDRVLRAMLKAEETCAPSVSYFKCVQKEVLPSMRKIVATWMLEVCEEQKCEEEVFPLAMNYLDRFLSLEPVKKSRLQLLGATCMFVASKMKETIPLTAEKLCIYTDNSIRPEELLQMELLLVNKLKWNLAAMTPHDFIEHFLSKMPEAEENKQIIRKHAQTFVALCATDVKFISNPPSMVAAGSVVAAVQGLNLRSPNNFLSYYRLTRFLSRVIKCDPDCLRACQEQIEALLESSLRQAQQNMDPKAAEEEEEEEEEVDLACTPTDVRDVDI

`CCN(CC)c1ccc2c(c1)C(=CNCc1ccc(O)c(O)c1)C(=O)NC2=O` [Example 608, 6-Diethylamino-4-[(3,4-dihydroxy-benzylamino)-methylene]-4H-isoquinoline-1,3-dione]: the concentration for half-maximal inhibition (IC50) in test [1] worked out at 0.2 µM; in test [2] it was 6.7 µM; in test [3] it was 18.9 µM; in test [4] it was 11.6 µM; in test [5] it was 11.4 µM; in test [6], 10.4 µM. In addition, the half-maximal inhibitory concentration (IC50) in test [7] amounted to 10.7 µM.
Turning to `O=C1NC(=O)c2ccc(N3CCCC3)cc2/C1=C/NCc1ccc(O)c(O)c1` [Example 609, 4-[(3,4-Dihydroxy-benzylamino)-methylene]-6-pyrrolidin-1-yl-4H-isoquinoline-1,3-dione], the IC50 in test [1] came to 0.02 µM; in test [2], 12.1 µM; in test [3] it was 11.8 µM; in test [4], 18.3 µM; in test [5], 30.6 µM; in test [6] it was 19.1 µM. The IC50 in test [7] was determined as 13.6 µM.
Regarding `O=C1NC(=O)c2ccc(N3Cc4ccccc4C3)cc2C1=CNCc1ccc(O)c(O)c1` [Example 610, 6-(1,3-Dihydro-isoindol-2-yl)-4-[(3,4-dihydroxy-benzylamino)-methylene]-4H-isoquinoline-1,3-dione], the IC50 in test [1] stood at 0.38 µM; in test [2], 2.5 µM; in test [3], 3.5 µM; in test [4], 27 µM; in test [5], 9.9 µM; in test [6], 11.1 µM. In addition, in test [7], the half-maximal inhibitory concentration (IC50) was determined as 12.2 µM.
Take `O=C1NC(=O)c2ccc(N(CCC(F)(F)F)CCC(F)(F)F)cc2C1=CNCc1ccc(O)c(O)c1` [Example 611, 6-[Bis-(3,3,3-trifluoro-propyl)-amino]-4-[(3,4-dihydroxy-benzylamino)-methylene]-4H-isoquinoline-1,3-dione]: the 50% inhibitory concentration (IC50) in test [1] worked out at 12.9 µM; in test [2], 18.1 µM; in test [3], 18.1 µM; in test [4], 23.6 µM; in test [5], 14.1 µM; in test [6], 16.1 µM. Further, the IC50 in test [7] was found to be 13.2 µM.
As for `CC1CCCN1Cc1ccc(NC=C2C(=O)NC(=O)c3ccccc32)cc1` (stereo not shown) [Example 617, 4-{[4-(2-Methyl-pyrrolidin-1-ylmethyl)-phenylamino]-methylene}-4H-isoquinoline-1,3-dione], the IC50 in test [1] was 16.5 µM; in test [2], 21.3 µM; in test [3], above 50 µM; in test [4] it was 18.5 µM; in test [5], 7.6 µM; in test [6], 14 µM. Further, in test [7], the IC50 amounted to 11.2 µM.
As to `O=C1NC(=O)c2ccc(-c3ccccc3)cc2C1=CNCc1ccc(O)c(O)c1` [Example 620, 4-[(3,4-Dihydroxy-benzylamino)-methylene]-6-phenyl-4H-isoquinoline-1,3-dione], the IC50 in test [1] came to 0.05 µM; in test [2], 5.8 µM; in test [3], 32.5 µM; in test [4], 15.5 µM; in test [5] it was 11.7 µM; in test [6], 11.5 µM. The IC50 in test [7] was determined as 11 µM.
With `O=C1NC(=O)c2ccc(-c3ccco3)cc2C1=CNCc1ccc(O)c(O)c1` [Example 621, 4-[(3,4-Dihydroxy-benzylamino)-methylene]-6-furan-2-yl-4H-isoquinoline-1,3-dione], the IC50 was 0.01 µM in test [1]; 4.1 µM in test [2]; 8.1 µM in test [3]; 3.5 µM in test [4]; 9.7 µM in test [5]; 8.7 µM in test [6]. Also, the IC50 in test [7] came out at 6.8 µM.
On to `N#CCc1ccc(NC=C2C(=O)NC(=O)c3ccc(-c4ccc[nH]4)cc32)cc1` [Example 630, (4-{[1,3-Dioxo-6-(1H-pyrrol-2-yl)-2,3-dihydro-1H-isoquinolin-4-ylidenemethyl]-amino}-phenyl)-acetonitrile], for which the IC50 worked out at 0.2 µM in test [1]; 17.3 µM in test [2]; 31 µM in test [3]; 45.3 µM in test [4]; 26 µM in test [5]; 45.8 µM in test [6]. Moreover, in test [7], the IC50 came to 20 µM.
Regarding `NS(=O)(=O)c1ccc(CNC=C2C(=O)NC(=O)c3ccc(-c4cc5ccccc5s4)cc32)cc1` [Example 635, 4-{[(6-Benzo[b]thiophen-2-yl-1,3-dioxo-2,3-dihydro-1H-isoquinolin-4-ylidenemethyl)-amino]-methyl}-benzenesulfonamide], the IC50 in test [1] was 1.2 µM; in test [2], 19.7 µM; in test [3], 16.9 µM; in test [4], 37.2 µM; in test [5], 23.6 µM; in test [6], above 50 µM. Further, the 50% inhibitory concentration (IC50) in test [7] came out at 11.4 µM.
For `NS(=O)(=O)c1ccc(CNC=C2C(=O)NC(=O)c3ccc(-c4ccc5[nH]ccc5c4)cc32)cc1` [Example 637, 4-({[6-(1H-Indol-5-yl)-1,3-dioxo-2,3-dihydro-1H-isoquinolin-4-ylidenemethyl]-amino}-methyl)-benzenesulfonamide], the IC50 in test [1] is 0.81 µM; in test [2], 13.5 µM; in test [3] it was 18 µM; in test [4] it was 29.2 µM; in test [5] it was above 50 µM; in test [6], above 50 µM. In addition, in test [7], the IC50 is 22.7 µM.
As to `NS(=O)(=O)c1ccc(CNC=C2C(=O)NC(=O)c3ccc(-c4ccc[nH]4)cc32)cc1` [Example 638, 4-({[1,3-Dioxo-6-(1H-pyrrol-2-yl)-2,3-dihydro-1H-isoquinolin-4-ylidenemethyl]-amino}-methyl)-benzenesulfonamide], the IC50 in test [1] is 0.05 µM; in test [2] it was 6 µM; in test [3], 17.3 µM; in test [4] it was 35.9 µM; in test [5], above 50 µM; in test [6], above 50 µM. Besides, in test [7], the concentration for half-maximal inhibition (IC50) is above 50 µM.
Turning to `NS(=O)(=O)c1ccc(CNC=C2C(=O)NC(=O)c3ccc(-c4cc[nH]c4)cc32)cc1` [Example 639, 4-({[1,3-Dioxo-6-(1H-pyrrol-3-yl)-2,3-dihydro-1H-isoquinolin-4-ylidenemethyl]-amino}-methyl)-benzenesulfonamide], the IC50 was 9.2 µM in test [1]; 19.7 µM in test [2]; above 50 µM in test [3]; 18.7 µM in test [4]; above 50 µM in test [5]; above 50 µM in test [6]. In test [7], the IC50 came out at 25.8 µM.
`O=C1NC(=O)c2ccc(-c3ccc4ccccc4c3)cc2C1=CNCc1ccc(O)c(O)c1` [Example 641, 4-[(3,4-Dihydroxy-benzylamino)-methylene]-6-naphthalen-2-yl-4H-isoquinoline-1,3-dione]: the IC50 in test [1] was 1.9 µM; in test [2], above 50 µM; in test [3] it was above 50 µM; in test [4], 19.7 µM; in test [5], 10.5 µM; in test [6], 9.4 µM. For the same compound, the concentration for half-maximal inhibition (IC50) in test [7] worked out at 9.6 µM.
With `O=C1NC(=O)c2ccc(-c3cccc4cccnc34)cc2C1=CNCc1ccc(O)c(O)c1` [Example 642, 4-[(3,4-Dihydroxy-benzylamino)-methylene]-6-quinolin-8-yl-4H-isoquinoline-1,3-dione], the IC50 in test [1] was 1 µM; in test [2], 28.3 µM; in test [3], above 50 µM; in test [4], 14.2 µM; in test [5], 20.5 µM; in test [6] it was 12.1 µM. Further, the IC50 in test [7] was 12.7 µM.
With `O=C1NC(=O)c2ccc(-c3cc4ccccc4s3)cc2C1=CNCc1ccc(O)c(O)c1` [Example 644, 6-Benzo[b]thiophen-2-yl-4-[(3,4-dihydroxy-benzylamino)-methylene]-4H-isoquinoline-1,3-dione], the IC50 in test [1] was 2 µM; in test [2], above 50 µM; in test [3], above 50 µM; in test [4] it was 17.9 µM; in test [5] it was 14.1 µM; in test [6] it was 19.1 µM. For the same compound, the IC50 in test [7] was found to be 6.3 µM.
In the case of `O=C1NC(=O)c2ccc(-c3ccc4[nH]ccc4c3)cc2C1=CNCc1ccc(O)c(O)c1` [Example 646, 4-[(3,4-Dihydroxy-benzylamino)-methylene]-6-(1H-indol-5-yl)-4H-isoquinoline-1,3-dione], the IC50 in test [1] turned out to be 0.04 µM; in test [2], 2.9 µM; in test [3], 13.5 µM; in test [4] it was 11.9 µM; in test [5], 8.4 µM; in test [6], 10.7 µM. Further, the 50% inhibitory concentration (IC50) in test [7] turned out to be 7.7 µM.

In general, IC50 refers to the concentration needed to halve the response being measured.
